Results published in the NIST ThermoML archive (doi:10.1016/j.fluid.2008.01.004).

Test: mn = molality of the nth substance listed, in mol/kg
Details: 101 kPa, Liquid; for molar conductivity: digital conductivity meter; for speed of sound: Sing-around technique in a fixed-path interferometer

O=P([O-])([O-])[O-].[Na+].[Na+].[Na+] [trisodium phosphate] + O
Details | mass density, 293.15 K [kg/m3] | mass density, 298.15 K [kg/m3] | mass density, 303.15 K [kg/m3] | molar conductivity, 293.15 K [S·m2/mol] | molar conductivity, 298.15 K [S·m2/mol] | molar conductivity, 303.15 K [S·m2/mol] | speed of sound, 298.15 K [m/s] | speed of sound, 303.15 K [m/s]
m1 = 0.0026 | – | – | – | – | 0.0415 | 0.0409 | – | –
m1 = 0.0039 | – | – | – | – | 0.0401 | 0.0404 | – | –
m1 = 0.0053 | – | – | – | – | 0.0392 | 0.0398 | – | –
m1 = 0.0089 | 999.952 | 998.77 | 997.355 | – | – | – | 1499.3 | 1511.7
m1 = 0.0105 | 1000.27 | 999.088 | 997.668 | – | 0.0359 | 0.0367 | 1499.8 | 1512.1
m1 = 0.0116 | 1000.49 | 999.3 | 997.879 | – | – | – | 1500.2 | 1512.5
m1 = 0.0132 | 1000.8 | 999.611 | 998.187 | – | 0.0347 | 0.0355 | 1500.5 | 1512.8
m1 = 0.0183 | 1001.83 | 1000.62 | 999.189 | – | 0.0328 | 0.0333 | 1501.8 | 1514.1
m1 = 0.0234 | 1002.81 | 1001.6 | 1000.15 | – | 0.031 | 0.0318 | 1503.3 | 1515.6
m1 = 0.0342 | 1004.92 | 1003.68 | 1002.22 | – | 0.028 | 0.029 | 1505.8 | 1518
m1 = 0.045 | 1007.02 | 1005.76 | 1004.28 | – | 0.0263 | 0.0274 | 1508.5 | 1520.6
m1 = 0.0563 | 1009.2 | 1007.91 | 1006.41 | – | 0.025 | 0.0259 | 1511.1 | 1523.2
m1 = 0.0662 | 1011.09 | 1009.78 | 1008.27 | – | 0.0239 | 0.0248 | 1513.4 | 1525.5
m1 = 0.0767 | – | – | – | – | 0.0231 | 0.0238 | – | –
m1 = 0.088 | 1015.29 | 1013.95 | 1012.39 | – | 0.0221 | 0.023 | 1518.5 | 1530.5
m1 = 0.0968 | 1016.97 | 1015.61 | 1014.04 | 0.0206 | 0.0217 | 0.0226 | 1520.6 | 1532.4
m1 = 0.1086 | 1019.2 | 1017.82 | 1016.24 | 0.0201 | 0.0211 | 0.0216 | 1523.3 | 1535
m1 = 0.1133 | 1020.11 | 1018.73 | 1017.13 | 0.0198 | 0.0207 | 0.0215 | 1524.3 | 1536.1
m1 = 0.1296 | 1023.21 | 1021.79 | 1020.18 | 0.0189 | 0.0199 | 0.0208 | 1528 | 1539.6
m1 = 0.141 | 1025.39 | 1023.96 | 1022.32 | 0.0185 | 0.0195 | 0.0201 | 1530.7 | 1542.2
m1 = 0.1515 | 1027.32 | 1025.87 | 1024.22 | 0.0182 | 0.0193 | 0.0198 | 1532.9 | 1544.4
m1 = 0.1638 | 1029.67 | 1028.19 | 1026.53 | 0.0181 | 0.0191 | 0.0198 | 1535.7 | 1547.1
m1 = 0.1755 | 1031.84 | 1030.35 | 1028.66 | 0.0176 | 0.0186 | 0.0193 | 1538.3 | 1549.6
m1 = 0.1868 | 1034.01 | 1032.5 | 1030.8 | 0.0172 | 0.018 | 0.0186 | 1540.8 | 1552.1
m1 = 0.1954 | 1035.55 | 1034.03 | 1032.32 | 0.0171 | 0.0178 | 0.0182 | 1542.7 | 1553.9
m1 = 0.2224 | 1040.71 | 1039.14 | 1037.39 | 0.0162 | 0.0169 | 0.0173 | 1548.8 | 1559.9
m1 = 0.2333 | 1042.76 | 1041.17 | 1039.41 | 0.016 | 0.0168 | 0.0171 | 1551.2 | 1562.2
m1 = 0.2509 | 1045.97 | 1044.36 | 1042.57 | 0.0157 | 0.0163 | 0.0167 | 1555 | 1565.9
